Data published in article PMC11642016 (International Journal of Molecular Sciences, 2024).
Where “and” joins values, the source holds several entries; their conditions need not be identical. Equal entries are not always repeated. Where two headings read alike, the source gives them in different places.

Key:
[1] = system: Fadu cells; assay: CellTiter-Glo luminescent cell viability assay, Fadu
[2] = CellTiter-Glo luminescent cell viability assay, primary fibroblasts; conditions: human, primary skin fibroblasts (non-tumorous), Primer fibroblast Cell viability (% of controll), 72 h, dose–response, individual replicates
Description: (§1) Primary fibroblast cultures were prepared from human skin biopsies and maintained in DMEM supplemented with 10% FBS, 1% penicillin-streptomycin, and 1% MEM Non-Essential Amino Acids Solution (Thermo Fisher Scientific). […] All cell lines were cultured in a humidified atmosphere at 37 °C and 5% CO2, passaged twice a week, and the experiments were performed on cells between passage 5 and 15. The cell lines were routinely screened for the absence of mycoplasma infection (DAPI staining).
(§2) The effects of the synthesized compounds on cell viability were measured using the CellTiter-Glo® luminescent cell viability assay (Promega, Madison, WI, USA), according to the manufacturer’s instructions. Briefly, cells were seeded onto a flat-bottomed, white 96-well plate (BRANDplates, cat. no.: 781965)), with the following densities: PANC-1: 750 cells/well, Fadu: 2000 cells/well, primary fibroblasts: 2000 cells/well, HEK293T WT: 1000 cells/well, HEK293T CLPP^−/−: 2500 cells/well. After seeding, cells were incubated for a further 48 h before treatment. Cells were treated with the compounds for 72 h. Three concentrations (25.0 µM; 8.3 µM; 2.8 µM) were applied during the initial cell viability screening, while for the determination of dose–response curves, 1.5-fold serially diluted compound concentrations were applied (range: 26 µM–0.7 µM). After treatment, the luminescence signal was recorded using a microplate reader (BioTek Synergy 2 Multi-Mode Reader, BioTek, Winooski, VT, USA).
(§3) Data analysis was performed using GraphPad Prism 9.5.0 software (GraphPad Software, San Diego, CA, USA). […] The dose–response curves were generated by four-parameter nonlinear regression, and the IC50 values were determined as the means ± SEM of the best-fit values of 3 independent measurements. The R^2 values were consistently above 0.93, indicating a strong fit of the model to the experimental data (Supplementary S.89). […] Dunnett’s post hoc test was applied to adjust for multiple comparisons, minimizing the likelihood of false positive results. Assumptions for ANOVA, including normality (assessed via QQ plots) and homogeneity of variance (tested using the Brown–Forsythe test), were verified. The following significance levels were applied: * p < 0.05, ** p < 0.01, *** p < 0.001, **** p < 0.0001. […] The tumor selectivity of the compounds was quantitatively characterized by the selectivity index (SI). This parameter was calculated as the ratio of the average best-fit IC50 value for primary fibroblasts and the best-fit IC50 value for the corresponding tumor cells (PANC-1 or Fadu).

[3] = system: non-tumorous primary fibroblast cells; assay: as above; conditions: for Primer fibroblast Cell viability (% of controll): dose–response, individual replicates; for IC50: Homo sapiens, Fibroblast
Description: as §1, §2, §3

[4] = system: PANC-1 cells; assay: CellTiter-Glo luminescent cell viability assay, PANC-1
[5] = 0.7 μM, 72 h, dose–response, individual replicates
[6] = 1 μM, 72 h, dose–response, individual replicates
[7] = 1.5 μM, 72 h, dose–response, individual replicates
[8] = 2.3 μM, 72 h, dose–response, individual replicates
[9] = 3.4 μM, 72 h, dose–response, individual replicates
[10] = 5.1 μM, 72 h, dose–response, individual replicates
[11] = 7.7 μM, 72 h, dose–response, individual replicates
[12] = 17.3 μM, 72 h, dose–response, individual replicates
[13] = 26 μM, 72 h, dose–response, individual replicates

SMILES: CNCC#Cc1cccc(CN2C(=O)C3=C(CCN(Cc4ccc(-n5cc(-c6cccc(F)c6)nn5)cc4)C3)N3CCN=C23)c1 [43a]
- Fadu Cell viability (% of controll) [1, 5]: 109 % of controll
- Fadu Cell viability (% of controll) [1, 6]: 109 % of controll
- Fadu Cell viability (% of controll) [1, 7]: 104 % of controll and 103 % of controll
- Fadu Cell viability (% of controll) [1, 8]: 80 % of controll and 88 % of controll
- Fadu Cell viability (% of controll) [1, 9]: 71 % of controll and 29 % of controll and 38 % of controll
- Fadu Cell viability (% of controll) [1, 10]: 5 % of controll and 0 % of controll
- Fadu Cell viability (% of controll) [1, 11]: 0 % of controll
- Fadu Cell viability (% of controll) [1, 12]: 0 % of controll
- Fadu Cell viability (% of controll) [1, 13]: 0 % of controll
- viability at 0.7 µM ([1]; Homo sapiens, FaDu, 72 h, read-out: Fadu Cell viability (% of controll), 0.7 μM, 72 h, dose–response, individual replicates): 108%
- viability at 1 µM ([1]; Homo sapiens, FaDu, 72 h, read-out: Fadu Cell viability (% of controll), 1 μM, 72 h, dose–response, individual replicates): 112%
- viability at 1.5 µM ([1]; Homo sapiens, FaDu, 72 h, read-out: Fadu Cell viability (% of controll), 1.5 μM, 72 h, dose–response, individual replicates): 103%
- viability at 2.3 µM ([1]; Homo sapiens, FaDu, 72 h, read-out: Fadu Cell viability (% of controll), 2.3 μM, 72 h, dose–response, individual replicates): 95%
- viability at 7.7 µM ([1]; Homo sapiens, FaDu, 72 h, read-out: Fadu Cell viability (% of controll), 7.7 μM, 72 h, dose–response, individual replicates): 0%
- viability at 17.3 µM ([1]; Homo sapiens, FaDu, 72 h, read-out: Fadu Cell viability (% of controll), 17.3 μM, 72 h, dose–response, individual replicates): 0%
- viability at 26 µM ([1]; Homo sapiens, FaDu, 72 h, read-out: Fadu Cell viability (% of controll), 26 μM, 72 h, dose–response, individual replicates): 0%
- IC50 ([1]; Homo sapiens, FaDu, 72 h, read-out: IC50 Value ± SEM Fadu, 72 h treatment, best-fit values, n = 3): 3.2 ± 0.1 µM
- IC50 ([1]; Homo sapiens, FaDu, read-out: Fadu IC50 values, Mean, mean of independently fitted replicate IC50 values (Supplement S.6)): 3.18 µM
- Selectivity Index (SI) Fibroblast/Fadu ([1]; ratio of mean best-fit IC50 for primary fibroblasts and best-fit IC50 for Fadu): 1.0
- viability at 72 h, 0.7 µM ([2]; 0.7 μM): 99%
- viability at 72 h, 1 µM ([2]; 1 μM): 109%
- viability at 72 h, 2.3 µM ([2]; 2.3 μM): 111%
- viability at 72 h, 3.4 µM ([2]; 3.4 μM): 35%
- viability at 72 h, 5.1 µM ([2]; 5.1 μM): 0%
- viability at 72 h, 7.7 µM ([2]; 7.7 μM): 0%
- viability at 72 h, 17.3 µM ([2]; 17.3 μM): 0%
- viability at 72 h, 26 µM ([2]; 26 μM): 0%
- Primer fibroblast Cell viability (% of controll) ([3]; 0.7 μM, 72 h): 107 % of controll
- Primer fibroblast Cell viability (% of controll) ([3]; 1 μM, 72 h): 108 % of controll and 106 % of controll
- Primer fibroblast Cell viability (% of controll) ([3]; 1.5 μM, 72 h): 114 % of controll and 125 % of controll and 99 % of controll
- Primer fibroblast Cell viability (% of controll) ([3]; 2.3 μM, 72 h): 101 % of controll and 104 % of controll
- Primer fibroblast Cell viability (% of controll) ([3]; 3.4 μM, 72 h): 34 % of controll and 29 % of controll
- Primer fibroblast Cell viability (% of controll) ([3]; 5.1 μM, 72 h): 0 % of controll
- Primer fibroblast Cell viability (% of controll) ([3]; 7.7 μM, 72 h): 0 % of controll
- Primer fibroblast Cell viability (% of controll) ([3]; 17.3 μM, 72 h): 0 % of controll
- Primer fibroblast Cell viability (% of controll) ([3]; 26 μM, 72 h): 0 % of controll
- IC50 ([3]; 72 h, read-out: IC50 Value ± SEM Primary Fibroblast, 72 h treatment, best-fit values, n = 3): 3.2 ± 0.07 µM
- IC50 ([3]; read-out: Primary fibroblast IC50 values, Mean, mean of independently fitted replicate IC50 values (Supplement S.6), ONC201 value mathematically estimated from inflection point): 3.23 µM
- PANC-1 Cell viability (% of controll) [4, 5]: 108 % of controll and 111 % of controll
- PANC-1 Cell viability (% of controll) [4, 6]: 112 % of controll and 115 % of controll
- PANC-1 Cell viability (% of controll) [4, 7]: 102 % of controll and 112 % of controll
- PANC-1 Cell viability (% of controll) [4, 8]: 93 % of controll and 84 % of controll and 107 % of controll
- PANC-1 Cell viability (% of controll) [4, 9]: 0 % of controll
- PANC-1 Cell viability (% of controll) [4, 10]: 0 % of controll
- PANC-1 Cell viability (% of controll) [4, 11]: 0 % of controll
- PANC-1 Cell viability (% of controll) [4, 12]: 0 % of controll
- PANC-1 Cell viability (% of controll) [4, 13]: 0 % of controll
- IC50 ([4]; Homo sapiens, PANC-1, 72 h, read-out: IC50 Value ± SEM PANC-1, 72 h treatment, best-fit values, n = 3): 2500 ± 940 nM
- viability at 0.7 µM ([4]; Homo sapiens, PANC-1, 72 h, read-out: PANC-1 Cell viability (% of controll), 0.7 μM, 72 h, dose–response, individual replicates): 114%
- viability at 1 µM ([4]; Homo sapiens, PANC-1, 72 h, read-out: PANC-1 Cell viability (% of controll), 1 μM, 72 h, dose–response, individual replicates): 110%
- viability at 1.5 µM ([4]; Homo sapiens, PANC-1, 72 h, read-out: PANC-1 Cell viability (% of controll), 1.5 μM, 72 h, dose–response, individual replicates): 102%
- viability at 3.4 µM ([4]; Homo sapiens, PANC-1, 72 h, read-out: PANC-1 Cell viability (% of controll), 3.4 μM, 72 h, dose–response, individual replicates): 0%
- viability at 5.1 µM ([4]; Homo sapiens, PANC-1, 72 h, read-out: PANC-1 Cell viability (% of controll), 5.1 μM, 72 h, dose–response, individual replicates): 0%
- viability at 7.7 µM ([4]; Homo sapiens, PANC-1, 72 h, read-out: PANC-1 Cell viability (% of controll), 7.7 μM, 72 h, dose–response, individual replicates): 0%
- viability at 17.3 µM ([4]; Homo sapiens, PANC-1, 72 h, read-out: PANC-1 Cell viability (% of controll), 17.3 μM, 72 h, dose–response, individual replicates): 0%
- viability at 26 µM ([4]; Homo sapiens, PANC-1, 72 h, read-out: PANC-1 Cell viability (% of controll), 26 μM, 72 h, dose–response, individual replicates): 0%
- IC50 ([4]; Homo sapiens, PANC-1, read-out: PANC-1 IC50 values, Mean, mean of independently fitted replicate IC50 values (Supplement S.6)): 2480 nM
- Selectivity Index (SI) Fibroblast/PANC-1 ([4]; ratio of mean best-fit IC50 for primary fibroblasts and best-fit IC50 for PANC-1): 1.3
